For one experiment, the target named is PCSK9/LDLR PPI (Homo sapiens, UniProt Q8NBP7). Put plainly: PCSK9-LDLR TR-FRET assay (PCSK9/LDLR PPI inhibitory screening). The format is binding. As to conditions: for inhibition at 10 µM: mean of three experiments, read-out: PCSK9 percentage inhibitory rate; for IC50: dose-dependent IC50 plot, Figure 3, read-out: PCSK9 IC50 (inhibition of PCSK9/LDLR PPI). On the procedure: The PCSK9/LDLR time-resolved fluorescence resonance energy transfer (TR-FRET) assay was performed to evaluate the activity of synthesised compounds in inhibition of PCSK9-LDLR binding. The A series compounds were firstly synthesised for the PCSK9/LDLR PPI inhibitory test. […] Therefore, a group of A12 derivatives (B series) were synthesised with 4-chlorobenzyl substituted in the amino group and various substitutions introduced to the carboxylic group. […] To confirm whether the 4-chloromethyl group is essential for the PPI inhibitory activity, a new series of compounds (C series) were synthesised with the 4-chloromethyl group replaced by 4-methoxymethyl moiety. The inhibitory activity was observed, most likely resulting from the 4-methoxymethyl substitution (Table 3).
Chain of PCSK9/LDLR PPI (Q8NBP7 153-692): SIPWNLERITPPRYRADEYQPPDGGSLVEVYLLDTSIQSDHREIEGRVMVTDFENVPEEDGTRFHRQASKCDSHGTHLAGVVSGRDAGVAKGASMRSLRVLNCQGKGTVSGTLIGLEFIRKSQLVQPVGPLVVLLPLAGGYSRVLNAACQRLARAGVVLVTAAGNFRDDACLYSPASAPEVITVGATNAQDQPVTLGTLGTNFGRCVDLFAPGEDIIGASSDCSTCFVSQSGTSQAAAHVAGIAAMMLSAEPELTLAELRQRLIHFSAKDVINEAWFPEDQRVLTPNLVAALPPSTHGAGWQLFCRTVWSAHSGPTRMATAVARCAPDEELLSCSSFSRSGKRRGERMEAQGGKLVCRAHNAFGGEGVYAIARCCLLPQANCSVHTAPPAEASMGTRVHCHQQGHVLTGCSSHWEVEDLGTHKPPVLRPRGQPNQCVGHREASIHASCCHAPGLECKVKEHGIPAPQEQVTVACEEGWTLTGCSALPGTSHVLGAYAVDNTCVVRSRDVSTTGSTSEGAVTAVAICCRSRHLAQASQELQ
Chain of PCSK9/LDLR PPI (Q8NBP7 31-152 partner limits assumed): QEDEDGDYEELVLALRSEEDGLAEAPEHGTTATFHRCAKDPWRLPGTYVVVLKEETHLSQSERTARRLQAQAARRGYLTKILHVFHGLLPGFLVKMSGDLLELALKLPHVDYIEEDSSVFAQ
The compounds were dissolved in 100% DMSO; then 2 µL of the dilution was added to a 20 µL of reaction to keep […] in all of reactions. The binding reaction was conducted at room temperature. The reaction mixture in assay buffer contains PCSK9, the indicated amount of the inhibitor, ligand LDLR, and the reaction dyes. The reaction mixture was incubated for 120 min before detection of the TR-FRET signal. Fluorescence signals for both the donor and acceptor dyes were measured using a Tecan Infinite M1000 plate reader. TR-FRET was recorded as the ratio of the fluorescence of the acceptor and the donor dyes (acceptor/donor). The TR-FRET data were analysed using Graphpad Prism software.
A general note: TR-FRET usually uses a lanthanide donor and a delayed reading to cut background.

Experiment [1] deals with LDL uptake of HepG2 cells. Description: Fluorescent LDL uptake assay in the presence of PCSK9. Format: cell-based, human. The settings on record: PCSK9 treatment group 29.82%. On the procedure:
Extracellular LDL uptake assay was performed to evaluate the functional effects of PCSK9/LDLR PPI inhibition. The effects of active compounds in improving the capacity of HepG2 cells to uptake the fluorescent LDL were investigated using SBC-115337 as the positive control. […] The tested compound A12, B1, B3, B4 and B14 strengthened the ability of HepG2 cells to absorb LDL from 29.82% of the PCSK9 treatment group up to 32.78%, 33.29%, 39.58%, 36.24% and 42.41% at the doses of 5 µM, and 44.80%, 47.15%, 50.67%, 49.94 and 64.27% at the doses of 10 µM, respectively.
HepG2 cells (2 × 10^4 cells per well) were seeded in black 96-well plates and cultured for more than 24 h. The following day, cells were treated with 4.0 μg/ml K9 alone and the tested compounds with the presence of 4.0 μg/ml of K9, and vehicle (PBS) for 8 h. At the end of the treatments, the culture medium was replaced with 50.0 μl/well LDL-DyLight™ 550 working solution (Cayman Chemical Company, US). The cells were additionally incubated for 16 h at 37 °C. Then the cells were washed with PBS one time, then added PBS with 100.0 μl/well. The degree of LDL uptake was measured using a plate reader (EnSpire, Perkin Elmer Corporation) at excitation wavelengths 540 nm and emission wavelengths 570 nm.

The subject of a further experiment is HepG2 cells. Description: MTT assay on HepG2 cells. Format: cell-based. As to conditions: Homo sapiens, mean of three experiments, read-out: HepG2 percentage inhibitory rate. In general terms: Formazan colour is commonly taken as a measure of viable cells.
Experiment [2] has as its system LDLR level on the surface of HepG2 cells. Description: LDLR expression assay, In-Cell Western (ICW), in the presence of PCSK9. Format: cell-based, human. The settings on record: for effect on LDLR protein level (in words): HepG2 cells in the presence of PCSK9, compared with positive control SBC-115337; for proportion of LDLR: PCSK9 alone 34.33%. On the procedure:
LDLR is degraded in lysosomes by binding to PCSK9. Thus, inhibition of PCSK9/LDLR PPI could increase the LDLR level on the surface of hepatocytes. In the current study, human hepatic HepG2 cells were selected for the investigation of the active compounds for LDLR expression. SBC-115337, developed by Shifa Biomedical Corporation, as a potent PCSK9/LDLR PPI inhibitor was utilised as the positive control. All the synthesised compounds were evaluated to be safe with low inhibitory ratios at the dose of 10 µM in the MTT assay (Tables 1–3). Then, in cell western (ICW) assay was performed to detect the LDLR level on the surface of HepG2 cells.
The HepG2 cell line was grown in a humidified incubator with 5% CO2 at 37 °C and cultured in DMEM-High glucose medium with 10% (v/v) heat-inactivation foetal bovine serum, 2 mM L-glutamine and 100 U/ml penicillin-streptomycin. The expression level of LDLR in HepG2 cells was determined by In-Cell Western (ICW) Assay as described previously. Briefly, cells were plated in a 96-well plate (2 × 10^4 cells per well) and cultured for more than 24 h, followed by washing with PBS and starving overnight in DMEM without FBS. HepG2 cells were treated with 4.0 μg/ml PCSK9 (K9) alone and the tested compounds with the presence of 4.0 μg/ml of K9, and vehicle (PBS) for 8 h. Then cells were washed with PBS one time and fixed in 4% paraformaldehyde for 20 min. Cells were washed 5 times with PBS, then were blocked with 5% BSA in PBS for 1 h. LDLR monoclonal Antibody solution (1:1000 in 5% BSA in PBS, 50.0 μL/well) was incubated overnight at 4 °C. Subsequently, the cells were washed 5 times with PBS. Goat anti-mouse IgG-HRP secondary antibody solution (1:2000 in 5% BSA in PBS, 50.0 μL/well) was added and incubated 1 h at RT. Then cells were washed 5 times with PBS and added with TMB substrate, then incubated at RT until desired colour was developed. 50.0 μL/well of 2 M H2SO4 were added to stop the reaction and the absorbance at 450 nm was measured using a plate reader (EnSpire, Perkin Elmer Corporation).

[3] abbreviates: 5 µM compound with 4.0 μg/ml PCSK9.
The mark [4] stands for this setting: 10 µM compound with 4.0 μg/ml PCSK9.

The values below come from paper PMC9307114, “Discovery and SAR analysis of phenylbenzo[d][1,3]dioxole-based proprotein convertase subtilisin/kexin type 9 inhibitors” (Journal of Enzyme Inhibition and Medicinal Chemistry, 2022).

As to `O=C(Nc1ccc(Cl)cc1)c1ccc(-c2cc3c(cc2NC(=O)c2ccc(CCl)cc2)OCO3)cc1` [B1, 4-(Chloromethyl)-N-(6-(4-((4-chlorophenyl)carbamoyl)phenyl)benzo[d][1,3]dioxol-5-yl)benzamide], the inhibition at 10 µM stood at 54.3 ± 1.54% on PCSK9/LDLR PPI and 9.97 ± 0.39% in the experiment on HepG2 cells. In addition, the IC50 at PCSK9/LDLR PPI came to 62.2 µM. In addition, the “LDL uptake of HepG2 cells” value was determined as 33.29% in experiment [1] (setting [3]) and 47.15% in experiment [1] (setting [4]). The “effect on LDLR protein level (in words)” value in experiment [2] is “restored the LDLR protein level in a dose dependent manner”.
In the case of `O=C(Nc1ccc(F)cc1)c1ccc(-c2cc3c(cc2NC(=O)c2ccc(CCl)cc2)OCO3)cc1` [B3, 4-(Chloromethyl)-N-(6-(4-((4-fluorophenyl)carbamoyl)phenyl)benzo[d][1,3]dioxol-5-yl)benzamide], the inhibition at 10 µM at PCSK9/LDLR PPI stood at 46.3 ± 2.77%; in the experiment with HepG2 cells it was 8.09 ± 0.76%. Further, the IC50 at PCSK9/LDLR PPI turned out to be 23.4 µM. In addition, the figures for the “LDL uptake of HepG2 cells” value in experiment [1] (setting [3]) and in experiment [1] (setting [4]) were 39.58% and 50.67%, respectively. For the same compound, the “effect on LDLR protein level (in words)” value in experiment [2] is on record as “restored the LDLR protein level in a dose dependent manner”.
For `O=C(Nc1ccc(O)cc1)c1ccc(-c2cc3c(cc2NC(=O)c2ccc(CCl)cc2)OCO3)cc1` [B4, 4-(Chloromethyl)-N-(6-(4-((4-hydroxyphenyl)carbamoyl)phenyl)benzo[d][1,3]dioxol-5-yl)benzamide], the inhibition at 10 µM came to 45.2 ± 2.85% at PCSK9/LDLR PPI and 5.42 ± 0.38% in the experiment with HepG2 cells. The IC50 at PCSK9/LDLR PPI stood at 24.6 µM. The “LDL uptake of HepG2 cells” value is given as 36.24% in experiment [1] (setting [3]) and 49.94% in experiment [1] (setting [4]). Further, the “effect on LDLR protein level (in words)” value in experiment [2] is “restored the LDLR protein level in a dose dependent manner”.
As for `COc1ccccc1N1CCN(C(=O)c2ccc(-c3cc4c(cc3NC(=O)c3ccc(CCl)cc3)OCO4)cc2)CC1` [B14, 4-(Chloromethyl)-N-(6-(4-(4-(2-methoxyphenyl)piperazine-1-carbonyl)phenyl)benzo[d][1,3]dioxol-5-yl)benzamide], the inhibition at 10 µM amounted to 64.6 ± 1.54% on PCSK9/LDLR PPI and 5.71 ± 0.54% with HepG2 cells. In addition, the IC50 on PCSK9/LDLR PPI worked out at 16.4 µM. Further, the “LDL uptake of HepG2 cells” value in experiment [1] (setting [3]) worked out at 42.41%; in experiment [1] (setting [4]), 64.27%. In addition, the “proportion of LDLR” value in experiment [2] (5 µM compound with 4.0 μg/ml PCSK9, 8 h) is 50.55%; in experiment [2] (10 µM compound with 4.0 μg/ml PCSK9, 8 h), 66.51%. For the same compound, the “effect on LDLR protein level (in words)” value in experiment [2] was “restored the LDLR protein level in a dose dependent manner”.
